According to PubChem BioAssay (NCI):
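96-well plates; 48 h exposure; 5 concentrations. Endpoints by linear interpolation between flanking doses. Not reached: highest tested concentration assigned. GI50 is the concentration that inhibits growth by half. At the TGI there is no net growth.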

What was measured:
Test in all cases: growth of human tumour cells (NCI), 48 h
[1] = test system: CAKI-1 renal
[2] = test system: HOP-92 NSCLC
[3] = test system: UO-31 renal
[4] = test system: MCF7 breast
[5] = test system: SK-MEL-5 melanoma
[6] = test system: KM12 colon
[7] = test system: SF-268 CNS
[8] = test system: A498 renal
[9] = test system: CCRF-CEM leukemia
[10] = test system: UACC-257 melanoma
[11] = test system: NCI-H226 lung
[12] = test system: NCI/ADR-RES ovarian
[13] = test system: T-47D breast
[14] = test system: NCI-H522 lung
[15] = test system: DU-145 prostate
[16] = test system: M14 melanoma
[17] = test system: BT-549 breast
[18] = test system: NCI-H23 lung
[19] = test system: PC-3 prostate
[20] = test system: HL-60(TB) leukemia
[21] = test system: LOX IMVI melanoma
[22] = test system: HCC-2998 colon
[23] = test system: SK-OV-3 ovarian
[24] = test system: OVCAR-5 ovarian
[25] = test system: HT29 colon
[26] = test system: SK-MEL-2 melanoma
[27] = test system: HCT-15 colon
[28] = test system: NCI-H460 lung
[29] = test system: OVCAR-3 ovarian
[30] = test system: COLO 205 colon
[31] = test system: SNB-75 CNS
[32] = test system: ACHN renal
[33] = test system: UACC-62 melanoma
[34] = test system: TK-10 renal
[35] = test system: HCT-116 colon
[36] = test system: OVCAR-4 ovarian
[37] = test system: MALME-3M melanoma
[38] = test system: OVCAR-8 ovarian
[39] = test system: SN12C renal
[40] = test system: SF-539 CNS
[41] = test system: IGROV1 ovarian

CN(CCNC(=O)c1[nH]nc2c1ccc1ccccc12)CCNC(=O)c1[nH]nc2c1ccc1ccccc12
TGI [1]: > 76.2 µM
TGI [2]: 18.5 µM
TGI [3]: 29.1 µM
TGI [4]: 3.29 µM
TGI [5]: 3.24 µM
TGI [6]: 5.3 µM
TGI [7]: 4.84 µM
TGI [8]: 67.7 µM
TGI [9]: 5 µM
TGI [10]: 56.7 µM
TGI [11]: 46.5 µM
TGI [12]: > 100 µM
TGI [13]: 5.03 µM
TGI [14]: 3.9 µM
TGI [15]: 10.2 µM
TGI [16]: 3.49 µM
TGI [17]: 53.2 µM
TGI [18]: 4.09 µM
TGI [19]: 6.8 µM
TGI [20]: 5.95 µM
TGI [21]: 3.33 µM
TGI [22]: 3.61 µM
TGI [23]: 30.1 µM
TGI [24]: 3.71 µM
TGI [25]: 3.27 µM
TGI [26]: 37.9 µM
TGI [27]: 46.7 µM
TGI [28]: 5.11 µM
TGI [29]: 6.26 µM
TGI [30]: 2.74 µM

FC(F)(F)c1cc(Nc2ccc3c(OCCCN4CCOCC4)cccc3n2)ccc1Cl
GI50 [31]: 1.89 µM
TGI [31]: 6.2 µM
GI50 [32]: 2.98 µM
TGI [32]: 10.3 µM
GI50 [3]: 1.63 µM
TGI [3]: 4.29 µM
GI50 [8]: 3.12 µM
TGI [8]: 48.3 µM
GI50 [33]: 2.05 µM
TGI [33]: 4.16 µM
GI50 [34]: 3.49 µM
TGI [34]: > 100 µM
GI50 [11]: 3.54 µM
TGI [11]: > 100 µM
GI50 [35]: 2.07 µM
TGI [35]: 4.55 µM
GI50 [36]: 3.07 µM
TGI [36]: > 100 µM
GI50 [12]: 3.16 µM
TGI [12]: > 100 µM
GI50 [37]: 1.69 µM
TGI [37]: 4.11 µM
GI50 [15]: 2.78 µM
TGI [15]: > 100 µM
GI50 [38]: 4.33 µM
TGI [38]: > 100 µM
GI50 [39]: 3.35 µM
TGI [39]: 16.8 µM
GI50 [40]: 1.9 µM
TGI [40]: 4.01 µM
GI50 [17]: 2.43 µM
TGI [17]: 8.76 µM
GI50 [19]: 2.26 µM
TGI [19]: > 100 µM
GI50 [41]: 3.96 µM
TGI [41]: 37.8 µM
GI50 [24]: 2.36 µM
TGI [24]: 6.24 µM
